Reference: PubChem BioAssay (NCI)
Several values for one entry are separate records, joined by “and”; a condition that tells them apart may be missing. Equal values may be shown once.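 Following 48 hours of exposure in 96-well plates, responses at five concentrations were used to interpolate endpoints linearly. GI50: concentration for 50% inhibition of growth. TGI: total growth inhibition.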

Experiments:
Assay in all cases: growth of human tumour cells (NCI), 48 h
CCRF-CEM leukemia = system: CCRF-CEM leukemia
SNB-75 CNS = system: SNB-75 CNS
SK-MEL-28 melanoma = system: SK-MEL-28 melanoma
MOLT-4 leukemia = system: MOLT-4 leukemia
SNB-19 CNS = system: SNB-19 CNS
M14 melanoma = system: M14 melanoma
MDA-N = system: MDA-N
MDA-MB-435 = system: MDA-MB-435
MDA-MB-231 breast = system: MDA-MB-231 breast
BT-549 breast = system: BT-549 breast

Structure (SMILES)	TGI (CCRF-CEM leukemia)	TGI (SNB-75 CNS)	TGI (SK-MEL-28 melanoma)	TGI (MOLT-4 leukemia)	TGI (SNB-19 CNS)	TGI (M14 melanoma) [µM]	TGI (MDA-N) [µM]	TGI (MDA-MB-435) [µM]	TGI (MDA-MB-231 breast) [µM]	TGI (BT-549 breast) [µM]	GI50 (SNB-75 CNS) [µM]	GI50 (MOLT-4 leukemia) [µM]	GI50 (SNB-19 CNS) [µM]	GI50 (CCRF-CEM leukemia) [µM]	GI50 (SK-MEL-28 melanoma) [µM]
Nc1nn(CC(O)CO)c(=O)s1 (configuration not stated)	> 100 µM	> 100 µM	9.86 µM	> 100 µM	> 100 µM	> 100									
Cc1c(O)c(=O)ccn1CCc1c[nH]c2ccccc12				> 100 µM	> 100 µM	40.2	> 100	> 100	6.47	> 100					
CC(=O)NC(C)c1ccc(N=NN2CCCC2)cc1 (configuration not stated)	> 100 µM	> 100 µM	> 100 µM		> 100 µM	> 100	> 100	> 100	> 100						
C=CC[N+](CCO)(CCO)CCCCCCCCCCCCCCCCCC	3.76 µM	7.55 µM	28 µM	3.85 µM	35.3 µM										
COc1c(-c2cccs2)oc2c(CC(=O)O)cccc2c1=O	> 100 µM			> 100 µM		> 100	> 100	> 100	> 100	> 100					
N/C(=N\N=C\c1cc2c(cc1Cl)OCO2)NO	> 100 µM	> 100 µM	> 100 µM	> 100 µM	> 45.4 µM										
CCOC(=O)c1nc2cc(C(F)(F)F)ccc2nc1Nc1ccc(F)cc1	66.2 µM	> 100 µM	> 100 µM			> 100	> 100	> 100	> 100	> 100					
COc1ccc(/C=N\NC(=O)Nc2cccc3ccccc23)cc1	> 100 µM	34.5 µM	> 100 µM		36.8 µM	> 100	> 100	> 100	44.4	> 100					
Cc1ccc(S(=O)(=O)C2c3nc4ccccc4cc3-c3nc4ccccc4nc32)cc1 (configuration not stated)	> 100 µM	> 100 µM	> 100 µM	> 100 µM	> 100 µM	> 100									
COc1cc([C@@H]2c3cc4c(cc3[C@@H](N=Cc3ccc(C(=O)O[C@@H](C(=O)O[C@H]5C[C@@]6(O)[C@@H](OC(=O)c7ccccc7)[C@@H]7[C@]8(OC(C)=O)CO[C@@H]8C[C@H](O)[C@@]7(C)C(=O)[C@H](OC(C)=O)C(=C5C)C6(C)C)[C@@H](NC(=O)c5ccccc5)c5ccccc5)cc3)[C@H]3COC(=O)[C@H]23)OCO4)cc(OC)c1O			> 50 µM	> 50 µM	> 50 µM	> 50	0.0663	0.00867	> 13.9	> 11.7					
COc1ccc(/C(Cl)=C(\C=O)c2ccccc2)cc1OC	> 100 µM	52.2 µM		> 100 µM	> 100 µM	> 100									
CC(O)c1cc2c(s1)C(=O)c1scc(C(C)O)c1C2=O (configuration not stated)	> 100 µM	0.767 µM	0.62 µM	5.4 µM	1.66 µM	0.442	0.421	0.455		0.403					
C=C1C(=O)O[C@@H]2OC3(C)CCC4C(C)CCC1C42OO3 (some centres not stated)	2.35 µM and 5.26 µM	25.9 µM and 7.74 µM	25.1 µM and 23.9 µM	5.96 µM and 5.53 µM	26.5 µM and 27.9 µM						13.1	2.23	12.6		
CN1CCN(/C(N)=C(\C#N)C(=O)Nc2ccccc2)CC1	> 100 µM	> 100 µM	> 100 µM	> 100 µM	> 100 µM	> 100	> 100	> 100		> 100					
O=C(NN1C(=O)CSC1c1ccco1)c1ccncc1 (configuration not stated)	> 100 µM		> 100 µM	> 100 µM	> 100 µM	> 100	> 100	> 100	> 100	> 100					
Cc1ccc(C(=O)C2=CN=C3C(=O)N(c4ccccc4)N(C)C3(C)C2=N)cc1 (configuration not stated)	> 100 µM	> 100 µM		> 100 µM		> 100	> 100	> 100	> 100	> 100					
C/C(=N\NC(=O)c1cccnc1)c1cccc(/C(C)=N/NC(=O)c2cccnc2)n1.CC(=O)[O-].CC(=O)[O-].[Zn+2]	65.6 µM	98.2 µM	> 100 µM	11.4 µM	> 100 µM	> 47.2					24.7			0.783	29.4
COc1ccc(/C=N/n2cnc3c(c2=O)S/C(=C2/SC(=S)N(c4ccc(C)cc4)C2=O)N3c2ccccc2)cc1	> 100 µM	> 100 µM	> 100 µM	> 10 µM	83.5 µM	> 100									
CC1(C)OCC(COC(=O)NCn2cc(-c3ccccc3)nn2)O1 (configuration not stated)	> 100 µM	> 100 µM	> 100 µM	> 100 µM	> 100 µM	> 100			> 100	> 100					
O=S(=O)(O)c1cc(Nc2ccnc3ccccc23)c2c(S(=O)(=O)O)cc(S(=O)(=O)O)cc2c1	> 100 µM	> 100 µM	> 100 µM	> 100 µM		> 100	> 100	> 100	> 100	> 100					
CC1=Nc2c(C#N)ncn2N=C(C)C1	> 100 µM	> 100 µM	> 100 µM	> 100 µM		> 100	> 100	> 100	> 100	> 100					
CC(C)(C)OC(=O)N1Cc2cc(O)ccc2C[C@H]1C(=O)O	> 100 µM	> 100 µM	> 100 µM	> 100 µM	> 100 µM		> 100	> 100	> 100						
COc1ccc2c(c1)CC1(O)COc3cc(OC)ccc3C1O2 (configuration not stated)	> 100 µM			> 100 µM		> 100	> 100	> 100	> 100	> 100					
COC(=O)[C@@]12OC[C@]34C([C@@H](O)C1O)[C@@]1(C)CC(=O)C(O)=C(C)C1C[C@H]3OC(=O)[C@H](OC(=O)/C=C(/c1ccccc1)C(F)(F)F)[C@H]42 (some centres not stated)	> 25 µM	18.6 µM	15.9 µM	13.8 µM	14.2 µM	8.48									
CCOC(=O)C1=NN(c2ccc(Cl)cc2)C2=CC(C)=NN(C)C(=S)N21	> 100 µM	94.7 µM	> 100 µM	> 100 µM	> 100 µM	> 100	> 100	> 100	> 100						
N#CCOc1cccc(C2(N3CC=CCC3)CCCCC2)c1	> 100 µM		> 100 µM	> 100 µM	> 100 µM	> 100	> 100	> 100	> 100	> 100					
